Source: ChEMBL document CHEMBL2440076, “New triarylpyrazoles as broad-spectrum anticancer agents: design, synthesis, and biological evaluation” (Eur J Med Chem, 2013)

Tests used:
SK-OV-3 = assay: Growth inhibition of human SKOV3 cells after 48 hrs by sulforhodamine B assay; format: functional; conditions: SK-OV-3, 48 h; for CC50: read-out: LC50 (the source's name)
NCI-H460 [1] = assay: Growth inhibition of human NCI-H460 cells assessed as cell growth at 10 uM after 48 hrs by sulforhodamine B assay; format: functional; conditions: NCI-H460, 48 h, read-out: Activity
DU-145 = assay: Growth inhibition of human DU145 cells after 48 hrs by sulforhodamine B assay; format: functional; conditions: DU-145, 48 h
Malme-3M = assay: Growth inhibition of human MALME-3M cells after 48 hrs by sulforhodamine B assay; format: functional
MOLT-4 [2] = assay: Growth inhibition of human MOLT4 cells after 48 hrs by sulforhodamine B assay; format: functional; conditions: MOLT-4, 48 h; for CC50: read-out: LC50 (the source's name)
HL-60(TB) = assay: Growth inhibition of human HL-60(TB) cells assessed as cell growth at 10 uM after 48 hrs by sulforhodamine B assay; format: functional; conditions: HL-60, 48 h, read-out: Activity
HCT-15 = assay: Growth inhibition of human HCT15 cells assessed as cell growth at 10 uM after 48 hrs by sulforhodamine B assay; format: functional; conditions: HCT-15, 48 h, read-out: Activity
[3] = Growth inhibition of human NCI-ADR-RES cells assessed as cell growth at 10 uM after 48 hrs by sulforhodamine B assay; format: functional; conditions: read-out: Activity
PC-3 = assay: Growth inhibition of human PC3 cells after 48 hrs by sulforhodamine B assay; format: functional, cell-based; conditions: PC-3, 48 h; for CC50: read-out: LC50 (the source's name)
CCRF-CEM = assay: Growth inhibition of human CCRF-CEM cells assessed as cell growth at 10 uM after 48 hrs by sulforhodamine B assay; format: functional; conditions: read-out: Activity
HOP-92 = assay: Growth inhibition of human HOP92 cells after 48 hrs by sulforhodamine B assay; format: functional, cell-based; conditions: HOP-92, 48 h
HCT-116 [4] = assay: Growth inhibition of human HCT116 cells assessed as cell growth at 10 uM after 48 hrs by sulforhodamine B assay; format: functional; conditions: HCT-116, 48 h, read-out: Activity
[5] = Growth inhibition of human NCI-ADR-RES cells after 48 hrs by sulforhodamine B assay; format: functional; conditions: for CC50: read-out: LC50 (the source's name)
HCT-116 [6] = assay: Growth inhibition of human HCT116 cells after 48 hrs by sulforhodamine B assay; format: functional; conditions: HCT-116, 48 h; for CC50: read-out: LC50 (the source's name)
OVCAR-3 [7] = assay: Growth inhibition of human OVCAR3 cells assessed as cell growth at 10 uM after 48 hrs by sulforhodamine B assay; format: functional; conditions: OVCAR-3, 48 h, read-out: Activity
COLO 205 = assay: Growth inhibition of human COLO205 cells assessed as cell growth at 10 uM after 48 hrs by sulforhodamine B assay; format: functional; conditions: COLO 205, 48 h, read-out: Activity
NCI-H522 = assay: Growth inhibition of human NCI-H522 cells assessed as cell growth at 10 uM after 48 hrs by sulforhodamine B assay; format: functional; conditions: NCI-H522, 48 h, read-out: Activity
MCF7 = assay: Growth inhibition of human MCF7 cells assessed as cell growth at 10 uM after 48 hrs by sulforhodamine B assay; format: functional; conditions: MCF7, 48 h, read-out: Activity
NCI-H322M = assay: Growth inhibition of human NCI-H322M cells after 48 hrs by sulforhodamine B assay; format: functional; conditions: for CC50: read-out: LC50 (the source's name)
UACC-257 = assay: Growth inhibition of human UACC257 cells assessed as cell growth at 10 uM after 48 hrs by sulforhodamine B assay; format: functional; conditions: UACC-257, 48 h, read-out: Activity
SN12C = assay: Growth inhibition of human SN12C cells after 48 hrs by sulforhodamine B assay; format: functional; conditions: for CC50: read-out: LC50 (the source's name)
MOLT-4 [8] = assay: Growth inhibition of human MOLT4 cells assessed as cell growth at 10 uM after 48 hrs by sulforhodamine B assay; format: functional; conditions: MOLT-4, 48 h, read-out: Activity
OVCAR-3 [9] = assay: Growth inhibition of human OVCAR3 cells after 48 hrs by sulforhodamine B assay; format: functional, cell-based; conditions: OVCAR-3, 48 h; for CC50: read-out: LC50 (the source's name)
IGROV-1 = assay: Growth inhibition of human IGROV1 cells assessed as cell growth at 10 uM after 48 hrs by sulforhodamine B assay; format: functional; conditions: IGROV-1, 48 h, read-out: Activity
[10] = Growth inhibition of human Hs 578T cells after 48 hrs by sulforhodamine B assay; format: functional; conditions: for CC50: read-out: LC50 (the source's name)
[11] = Growth inhibition of human HCC2998 cells assessed as cell growth at 10 uM after 48 hrs by sulforhodamine B assay; format: functional; conditions: HCC 2998, 48 h, read-out: Activity
NCI-H226 [12] = assay: Growth inhibition of human NCI-H226 cells after 48 hrs by sulforhodamine B assay; format: functional; conditions: NCI-H226, 48 h; for CC50: read-out: LC50 (the source's name)
A549 = assay: Growth inhibition of human A549/ATCC cells after 48 hrs by sulforhodamine B assay; format: functional; conditions: A549, 48 h
SF-539 = assay: Growth inhibition of human SF539 cells assessed as cell growth at 10 uM after 48 hrs by sulforhodamine B assay; format: functional; conditions: SF-539, 48 h, read-out: Activity
NCI-H460 [13] = assay: Growth inhibition of human NCI-H460 cells after 48 hrs by sulforhodamine B assay; format: functional; conditions: NCI-H460, 48 h
NCI-H226 [14] = assay: Growth inhibition of human NCI-H226 cells assessed as cell growth at 10 uM after 48 hrs by sulforhodamine B assay; format: functional; conditions: NCI-H226, 48 h, read-out: Activity
LOX IMVI = assay: Growth inhibition of human LOXIMVI cells assessed as cell growth at 10 uM after 48 hrs by sulforhodamine B assay; format: functional; conditions: read-out: Activity
SF-268 = assay: Growth inhibition of human SF268 cells after 48 hrs by sulforhodamine B assay; format: functional; conditions: SF-268, 48 h; for CC50: read-out: LC50 (the source's name)
RXF 393 = assay: Growth inhibition of human RXF393 cells assessed as cell growth at 10 uM after 48 hrs by sulforhodamine B assay; format: functional; conditions: RXF 393, 48 h, read-out: Activity

COc1cc(-c2nn(-c3cccc(NC(=O)Nc4ccc(Cl)c(C(F)(F)F)c4)c3)cc2-c2ccncc2)ccc1Cl
GI50 (SK-OV-3): 1450 nM | TGI (SK-OV-3): 13 µM | CC50 (SK-OV-3): > 32.5 µM | growth at 10 µM (NCI-H460 [1]): 1.7% | GI50 (DU-145): 1500 nM | LC50 (DU-145): > 32.5 µM | TGI (DU-145): > 32.5 µM | GI50 (Malme-3M): 838 nM | LC50 (concentration killing 50% of starting cells) (Malme-3M): > 32.5 µM | TGI (Malme-3M): 2350 nM | GI50 (MOLT-4 [2]): 1020 nM | TGI (MOLT-4 [2]): 7.96 µM | CC50 (MOLT-4 [2]): > 32.5 µM | growth at 10 µM (HL-60(TB)): -19.8% | growth at 10 µM (HCT-15): 9.91% | growth at 10 µM [3]: -0.86% | GI50 (PC-3): 690 nM | IC50 (PC-3): 690 nM | TGI (PC-3): 2.45 µM | CC50 (PC-3): > 32.5 µM | growth at 10 µM (CCRF-CEM): -8.04% | GI50 (HOP-92): 499 nM | IC50 (HOP-92): 500 nM | LC50 (HOP-92): > 32.5 µM | TGI (HOP-92): 1480 nM | growth at 10 µM (HCT-116 [4]): 5.3% | GI50 [5]: 1040 nM | TGI [5]: 7.99 µM | CC50 [5]: > 32.5 µM | GI50 (HCT-116 [6]): 1170 nM | TGI (HCT-116 [6]): 4560 nM | CC50 (HCT-116 [6]): 21.5 µM | growth at 10 µM (OVCAR-3 [7]): -12.4% | growth at 10 µM (COLO 205): -91.6% | growth at 10 µM (NCI-H522): -13.9% | growth at 10 µM (MCF7): 0.14% | GI50 (NCI-H322M): 1500 nM | TGI (NCI-H322M): 13.9 µM | CC50 (NCI-H322M): > 32.5 µM | growth at 10 µM (UACC-257): -37.6% | GI50 (SN12C): 1140 nM | TGI (SN12C): 9.23 µM | CC50 (SN12C): > 32.5 µM | growth at 10 µM (MOLT-4 [8]): -2.38% | GI50 (OVCAR-3 [9]): 889 nM | IC50 (OVCAR-3 [9]): 890 nM | TGI (OVCAR-3 [9]): 2440 nM | CC50 (OVCAR-3 [9]): > 32.5 µM | growth at 10 µM (IGROV-1): 25.6% | GI50 [10]: 1320 nM | TGI [10]: 18.3 µM | CC50 [10]: > 32.5 µM | growth at 10 µM [11]: 8.88% | GI50 (NCI-H226 [12]): 1820 nM | TGI (NCI-H226 [12]): > 32.5 µM | CC50 (NCI-H226 [12]): > 32.5 µM | GI50 (A549): 1020 nM | LC50 (concentration killing 50% of starting cells) (A549): > 32.5 µM | TGI (A549): 16.7 µM | growth at 10 µM (SF-539): 6.56% | GI50 (NCI-H460 [13]): 1110 nM | LC50 (NCI-H460 [13]): > 32.5 µM | TGI (NCI-H460 [13]): 4.79 µM | growth at 10 µM (NCI-H226 [14]): 12.1% | growth at 10 µM (LOX IMVI): 1.06% | GI50 (SF-268): 1460 nM | TGI (SF-268): 9.14 µM | CC50 (SF-268): > 32.5 µM | growth at 10 µM (RXF 393): -27.8%

O=C(Nc1cccc(-n2cc(-c3ccncc3)c(-c3ccc(Cl)c(O)c3)n2)c1)Nc1cc(C(F)(F)F)cc(C(F)(F)F)c1
GI50 (SK-OV-3): 1350 nM | TGI (SK-OV-3): 3.81 µM | CC50 (SK-OV-3): > 50 µM | growth at 10 µM (NCI-H460 [1]): -55.7% | GI50 (DU-145): 1250 nM | LC50 (DU-145): 17.4 µM | TGI (DU-145): 5.62 µM | GI50 (Malme-3M): 939 nM | LC50 (concentration killing 50% of starting cells) (Malme-3M): 23.5 µM | TGI (Malme-3M): 3030 nM | GI50 (MOLT-4 [2]): 1150 nM | TGI (MOLT-4 [2]): 4.36 µM | CC50 (MOLT-4 [2]): > 50 µM | growth at 10 µM (HL-60(TB)): -18.3% | growth at 10 µM (HCT-15): -7.23% | growth at 10 µM [3]: 4.72% | GI50 (PC-3): 319 nM | IC50 (PC-3): 320 nM | TGI (PC-3): 4.37 µM | CC50 (PC-3): > 50 µM | growth at 10 µM (CCRF-CEM): -16% | GI50 (HOP-92): 344 nM | IC50 (HOP-92): 340 nM | LC50 (HOP-92): 8.66 µM | TGI (HOP-92): 1750 nM | growth at 10 µM (HCT-116 [4]): -59.1% | GI50 [5]: 1070 nM | TGI [5]: 5.25 µM | CC50 [5]: 38.7 µM | GI50 (HCT-116 [6]): 428 nM | TGI (HCT-116 [6]): 1110 nM | CC50 (HCT-116 [6]): 2.65 µM | growth at 10 µM (OVCAR-3 [7]): -67.5% | growth at 10 µM (COLO 205): -97.3% | growth at 10 µM (NCI-H522): -50.1% | growth at 10 µM (MCF7): 2.71% | GI50 (NCI-H322M): 1310 nM | TGI (NCI-H322M): 5.39 µM | CC50 (NCI-H322M): 23.6 µM | growth at 10 µM (UACC-257): -50.9% | GI50 (SN12C): 1030 nM | TGI (SN12C): 5.45 µM | CC50 (SN12C): > 50 µM | growth at 10 µM (MOLT-4 [8]): -18.5% | GI50 (OVCAR-3 [9]): 395 nM | IC50 (OVCAR-3 [9]): 400 nM | TGI (OVCAR-3 [9]): 1200 nM | CC50 (OVCAR-3 [9]): 3.31 µM | growth at 10 µM (IGROV-1): 4.8% | GI50 [10]: 1140 nM | TGI [10]: 4.08 µM | CC50 [10]: > 50 µM | growth at 10 µM [11]: -56.9% | GI50 (NCI-H226 [12]): 1240 nM | TGI (NCI-H226 [12]): 6.12 µM | CC50 (NCI-H226 [12]): 37.6 µM | GI50 (A549): 298 nM | LC50 (concentration killing 50% of starting cells) (A549): 11.4 µM | TGI (A549): 1.69 µM | growth at 10 µM (SF-539): -63% | GI50 (NCI-H460 [13]): 413 nM | LC50 (NCI-H460 [13]): 4.86 µM | TGI (NCI-H460 [13]): 1.48 µM | growth at 10 µM (NCI-H226 [14]): 1.17% | growth at 10 µM (LOX IMVI): -94.1% | GI50 (SF-268): 846 nM | TGI (SF-268): 2.69 µM | CC50 (SF-268): 20.5 µM | growth at 10 µM (RXF 393): -66.7%
